According to patent publication US20020036154A1, “Solid pharmaceutical dosage formulation of hydrophobic drugs” (priority 2000, published 2002):

Assay: Dissolution profiles of hydrocortisone (CCN90306A) Accudep Cores (paddles, 75 rpm, distilled water)
Format: physicochemical
Conditions: 1 mg CCN90306A, vs control core, 75 rpm paddles, n=3, FIG. 7
Description: Accudep™ Cores were made as follows: Control Accudep™ Core: Sealed a 1 mg deposition of CCN90306A between two polymer sheets with the following composition: 45% HPMC, 45% HPC, 10% PEG.

- dissolution at 20- and 30-minute sample points (Polysorbate 80 incorporated in film Accudep Core (20%)): faster dissolution
- dissolution at 20- and 30-minute sample points (SLS incorporated in film Accudep Core (20% SLS)): faster dissolution
Structure (SMILES): C[C@]12CCC(=O)C=C1CC[C@@H]1[C@@H]2[C@@H](O)C[C@@]2(C)[C@H]1CC[C@]2(O)C(=O)CO [CCN90306A, Hydrocortisone]
